Columns and labels:
[1] = system: genotype 2a (Jc1 chimera) HCVcc virus; assay: HCV cell-culture (HCVcc) infection assay, Luc-Jc1 luciferase reporter in Huh7/Scr cells; format: cell-based; conditions: for EC50: Hepatitis C virus, Huh-7, 72 h, read-out: EC50 (antiviral activity, HCV infection); for SI (Selectivity Index): calculated from EC50 and CC50
Experimental: (§1) To assess the inhibitory effects of Neosoraphens on HCV infection, a HCV cell-culture (HCVcc) system^[1-3] was used. Unless otherwise stated, Huh7/Scr cells (provided by F. Chisari, The Scripps Research Institute, La Jolla, Calif.) which are highly permissive for HCV propagation in vitro were employed. The experiments were performed in the context of genotype 2a (Jc1 chimera^[4]) HCVcc virus. To facilitate the quantification of infection, the bicistronic Jc1 luciferase reporter construct, designated Luc-Jc1^[5], was used. The commercial ACC inhibitor 5-(Tetradecyloxy)-2-furoic acid (TOFA), which has been previously described to inhibit HCV replication^[6], was chosen for comparison of the antiviral activities of the Neosoraphens. The NS3-4A serine protease inhibitor VX-950^[7], a known HCV replication inhibitor, was used as positive control. Briefly, Huh7/Scr cells were seeded at a density of 1.2×10^4 cells/well in 96-well plates. One day later cells were pre-incubated for 1 h at 37° C. with the compounds and then inoculated with the virus and the compounds for 4 h at 37° C. Finally, virus-containing media was replaced by a fresh media-compounds mix. Firefly luciferase activities were assayed 72 h post infection with the Dual-Glo® Luciferase Assay System while cytotoxicity (viability) assays were carried out with the CytoTox-Glo™ Cytotoxicity Assay (both purchased from Promega Corporation, Madison, Wis.), according to manufacturer's instructions, using a plate luminometer FLUOstar OPTIMA (BMG LABTECH, Ortenberg, Germany). Mean relative light units (RLU) were plotted as percentage relative to control infections (solvent without compounds) for both infectivity and cell viability. Infections were carried out in triplicates and measured in duplicates (mean±SEM; n=6). Half maximal effective concentration (EC50) and half maximal cytotoxic concentration 50 (CC50) were estimated by non-linear regression of log inhibitor vs. normalized response and used to calculate the Selectivity Index (SI) value.

[2] = system: Naive mouse CD4+ T cells under Th17 conditions; assay: Induction of Foxp3+ Treg differentiation in Th17 cultures (flow cytometry); format: cell-based; conditions: 4 days under Th17 conditions, varying concentrations, FIG. 1B
Experimental: (§2) Single cell suspensions were prepared and pooled from the spleen, mesenteric and peripheral lymph nodes of adult C57BL/6 mice by filtering the crushed organs through a 70 μm cell-strainer. Naïve CD4+CD25^−CD62L+ T cells were subsequently isolated from these suspensions using the CD4+CD25^−CD62L+ T cell isolation Kit II and AutoMACS according to the manufacturer's protocol (Miltenyi Biotec) or by FACS sorting. Purified T cells were cultured under classic Th17 inducing conditions (Bettelli et al., Nature 441(7090): 235-8 (2006)). In detail, the cells were cultured in 96 well flat bottom plates (3×10^5 cells per well), that were precoated with 10 μg/ml anti-CD3 Antibody (clone 145-2C11, BioXcell) in the presence of antibodies against CD28 (1 μg/ml, clone 37.51, BioXcell), IFN-γ (5 μg/ml, clone XMG1.2, BioXcell) and IL-4 (5 μg/ml, clone 11B11, BioXcell) as well as in the presence of TGFβ1 (2 ng/ml, R&D), IL-6 (5 ng/ml, R&D) and IL-1β (50 ng/ml, R&D) in IMDM Medium (supplemented with 10% FCS+500 U PenStrep+50 μM β-Mercaptoethanol). To these cultures, increasing concentrations of ACC Inhibitors Soraphen A or 5-(Tetradecyloxy)-2-furoic acid (TOFA) (both dissolved in DMSO) were added on day 0 and cultured for up to 4 days in an cell culture incubator (37° C. and 5% CO2). As control, cells were cultured in the presence of DMSO only.
(§3) Were indicated, cells from Th17 cultures were restimulated with 100 ng/ml phorbol 12-myristate 13-acetate (Sigma) and 1 μg/ml Inonomycin (Sigma) for 4 h and Brefeldin A (1:1000, Sigma) was added for the last 2 h of restimulation. After restimulation, cells were harvested for flow cytometry. For surface staining: fluorophore-labelled mAbs aginst CD3ε and CD4 were obtained from eBiosciences. For intracellular staining, cells were fixed with Fix/Perm (eBioscience) according to the manufacturer's protocol, and stained intracellular with fluorophore-labelled mAbs directed against IL-17A and Foxp3 (eBiosciences). Cells were run on a flow cytometer (CyAn, Beckman Coulter) and data was analysed on FlowJo (TreeStar) software.
(§4) To isolate naive CD4+CD25^−CD62L+ T cells by FACS-sorting, lymphocyte suspensions were surface-stained with fluorophore-labelled mAbs aginst CD4, CD25 and CD62L (all from ebioscience) and live CD4+CD25^−CD62L+ T cells were sorted to >98% purity using a Moflo (Beckman Coulter) or FACS ARIAII (BD Biosciences) cell sorter.
(§5) Naive mouse CD4^+ T cells were cultured for 4 days under Th17 conditions in the presence of varying concentrations of the compounds of the invention. As control, cells were cultured in the presence of DMSO only (negative control) or ACC inhibitor Soraphen A (positive control). After 4 days, cells were restimulated with PMA/Ionomycin for 4 h and Brefeldin A for 2 h and further analysed by flow cytometry.

[3] = system: Naive mouse CD4+ T cells under Th17 conditions; assay: In vitro Th17 differentiation of naive CD4+ T cells (IL-17A+ cells by flow cytometry); format: cell-based; conditions: 4 days under Th17 conditions, FIG. 1A; for percentage of IL-17A producing T-cells (inhibition of Th17 differentiation): varying concentrations
Experimental: as §2, §3, §4, §5

[4] = CytoTox-Glo cytotoxicity (viability) assay; format: cell-based; conditions: human, Huh7/Scr cells, read-out: CC50 (half maximal cytotoxic concentration)
Experimental: as §1

rotavirus (RV) = conditions: Gaunt et al., J Gen Virol 2013; cited from earlier work

| Structure (SMILES) | EC50 [1] [nM] | SI (Selectivity Index) [1] | differentiation of Foxp3+ Treg cells [2] | percentage of IL-17A producing T-cells (inhibition of Th17 differentiation) [3] | CC50 at 72 h [4] [µM] | EC50 ([3]; read-out: EC50 for decrease of IL-17A producing T-cells) [nM] | reduction of infectivity of progeny rotavirus (rotavirus (RV)) [fold] | reduction of viral RNA production (rotavirus (RV)) [fold] |
| --- | --- | --- | --- | --- | --- | --- | --- | --- |
| COC1CCCCC(c2ccccc2)OC(=O)CC2(O)CC(O)C(C)C(O2)C(C)/C=C/C1O (stereo not shown) [Neosoraphen M462] | 7.74 | 1752 | induction of Treg differentiation | Inhibition of Th17 | 13.6 | – | – | – |
| COC1CCCCC(c2ccccc2)OC(=O)CC2(O)CC(O)C(C)C(O2)C(C)CCC1O (stereo not shown) [Neosoraphen M464] | 46 | 1136 | induction of Treg differentiation | Inhibition of Th17 | 52.2 | – | – | – |
| COC1/C=C/C(C)C2OC(O)(CC(=O)OC(c3ccccc3)CCCCC1OC)CC(O)C2C (stereo not shown) [Neosoraphen M476] | 2.09 | 95072 | induction of Treg differentiation | Inhibition of Th17 | 199 | – | – | – |
| COC1CCCCC(c2ccccc2)OC(=O)CC2(O)CC(O)C(C)C(O2)C(C)CCC1OC (stereo not shown) [Neosoraphen M478] | 1.52 | 64961 | induction of Treg differentiation | Inhibition of Th17 | 98.7 | – | – | – |
| COC1CCCCC(c2ccccc2)OC(=O)CC2(O)CC(O)C(C)C(O2)C(C)C(O)CC1O (stereo not shown) [Neosoraphen M480] | 65.7 | 693 | – | – | 45.5 | – | – | – |
| CO[C@H]1CCCC[C@@H](c2ccccc2)OC(=O)[C@@H](C)[C@@]2(O)O[C@H]([C@@H](C)[C@H](O)[C@H]2OC)[C@@H](C)/C=C/[C@H]1OC [Soraphen A, reference compound] | – | – | induces the reciprocal differentiation of Foxp3+ Treg cells | decreases the percentage of IL-17A producing T-cells in a dose dependent manner | – | 40 | – | – |
| CCCCCCCCCCCCCCOc1ccc(C(=O)O)o1 [TOFA, 5-(Tetradecyloxy)-2-furoic acid, reference compound] | 1010 | 34 | – | – | 33.9 | – | 31 | 6 |
| CCC[C@H](NC(=O)[C@@H]1[C@H]2CCC[C@H]2CN1C(=O)[C@@H](NC(=O)[C@@H](NC(=O)c1cnccn1)C1CCCCC1)C(C)(C)C)C(=O)C(=O)NC1CC1 [VX-950, reference compound] | 18.9 | 4995 | – | – | 94.5 | – | – | – |

Source: US20170029436A1, “NEOSORAPHENS” (Helmoltz-Zentrum für Infektionsforschung GmbH, priority 2014, published 2017)
